Test results from patent publication US20250082647A1, “SPECIFIC DOSAGE OF PHENOTHIAZINE COMPOUNDS FOR USE IN TREATMENT OR PREVENTION OF ALZHEIMER'S DEMENTIA” (IMMUNGENETICS AG, priority 2022, published 2025).

System: plasma Abeta1-40
Experiment: Plasma Abeta1-40 in human subjects after oral thiethylperazine (INNO-BIA plasma Abeta forms immunoassay)
Format: in vivo
Conditions: for average increase in plasma Abeta1-40: day 1; for subjects with an increase of plasma Abeta1-40: oral
Procedure: Samples of 10 ml venous blood were collected in standardized test tubes containing ethylene diamine tetraacetic acid (EDTA) and gently shaken 1-2 times. As soon as possible (within max. 30 min.) samples were centrifuged at 1600 g, room temperature for 10 min. Plasma was aliquoted into 6 portions of 0.5 ml. All aliquots were frozen into a deep freezer (-80° C.) within 10 min after the centrifugation and stored until use. Abeta measurements were performed using the bead-based INNO-BIA plasma Abeta forms immunoassay (Innogenetics/Fujirebio Europe, Gent, Belgium) according to the manufacturer's protocol. Plasma samples and all other kit reagents were prepared according to the manufacturer's protocol. In brief, plasma samples were thawed at room temperature, centrifuged at 4000 g for 10 min to remove any possible debris, vortexed and then diluted 3-fold using Plasma Diluent. After transferring into the filter plate diluted samples, controls and standards were washed and incubated shaking overnight at 4° C. after the addition of the first conjugate. On the next day, all wells were washed 3 times and incubated with detection conjugate for 1 h at room temperature. After another 3 times washing, reading solution was added to all wells and the measurements were performed on a Luminex IS 100 (Luminex Corporation, Austin, TX, USA) platform after 2 minutes of shaking. Luminex instrument settings used were: gate-7500 to 15000, sample volume-50 μL and counts per region-100 beads. Standard curve calculation was performed using Stata 14.2 (StataCorp, College Station, TX, USA) employing a four-parametric logistic fit (nl log4 command). All standards, controls, and the patients' samples were analyzed in duplicates; all samples from a given individual were assayed in one analytical run. The duplicate-averaged concentrations (in pg/ml) of the two biomarkers (Abeta1-40 and Abeta1-42) were calculated. In all eight standard-curves fitting models (4 runs×2 biomarkers), adjusted R-squared statistics were higher than 0.995, which speaks for excellent curve fitting quality. Herein below, thiethylperazine was used as thiethylperazine maleate, wherein the weight-based amounts [in mg] are indicated with respect to thiethylperazine; the weight-based amounts of thiethylperazine maleate [in mg] are indicated in parenthesis. […] On day 1 (t=0 h), blood samples were taken from all subjects. […] Plasma Abeta was considered an indicator of brain Abeta content and Abeta export with higher plasma Abeta concentrations indicating higher Abeta clearance from the brain (Ferrero, Williams et al. 2016, […], Chiao et al. 2016).

In the case of `CCSc1ccc2c(c1)N(CCCN1CCN(C)CC1)c1ccccc1S2` [thiethylperazine, 2-(ethylsulfanyl)-10-[3-(4-methylpiperazin-1-yl)propyl]-10H-phenothiazine], the “mean plasma Abeta1-40 concentration difference between responders and non-responders” value (6.5 mg thiethylperazine) is reported as 33.04 pg/mL, the “average increase in plasma Abeta1-40” value (6.5 mg thiethylperazine) is reported as 7.8% and the “mean plasma Abeta1-40 concentration difference between responders and non-responders” value (13 mg thiethylperazine) is reported as 28.07 pg/mL. The “average increase in plasma Abeta1-40” value (13 mg thiethylperazine) was 7.8%, the “subjects with an increase of plasma Abeta1-40” value (shortened to “subjects with an increase”) (26 mg thiethylperazine (41.12 mg maleate) per day over three consecutive days, steady state, 15 subjects (comparative)) was 40% and the “average change of plasma Abeta1-40” value (26 mg thiethylperazine per day over three consecutive days, steady state) was 6.5%. For the same compound, the “mean plasma Abeta1-40 concentration difference between responders and non-responders” value (26 mg thiethylperazine, steady state) was 16.53 pg/mL, the “subjects with an increase” value (after second administration on day 1, dose of 13 mg thiethylperazine (20.56 mg maleate), 15 subjects) was 87% and the “subjects with an increase” value (initial dose of 6.5 mg thiethylperazine (10.28 mg maleate), day 1, blood four hours after administration, 15 subjects) was 53%. The “average increase in plasma Abeta1-40 higher compared to higher dose” value (lower dose 2-20 mg (6.5 mg and 13 mg) versus 26 mg) was ≥ 20%.
